Laboratory results reported in patent US8536304B2, “Tumour-associated peptides that bind to MHC molecules” (Immatics Biotechnologies GmbH, priority 2002, dated 2013).

Tests used:
Assay type in all cases: cell-based, human
CD8+-T-lymphocytes = assay: HLA-A*0201-tetramer staining of peripheral blood mononuclear cells from healthy individuals
Excerpt: Peripheral blood mononuclear cells from healthy patients were stained with HLA-A*0201-tetramers which were folded with adipophilin-, keratin 18- or met-protooncogene (c-Met)-peptides: For generation of the tetramers, recombinant HLA-A*0201-molecules were folded in vitro with the peptides […] (SEQ ID No. 2, adipophilin), […] (SEQ ID No. 3, keratin 18) or […] (SEQ ID No. 1, met-protooncogene, c-Met), purified by means of gel filtration, biotinylated and mixed with streptavidin to link the monomers.
In FIG. 1, the results of double staining are shown in dotplots, whereby in the middle row the results of staining with keratin 18 is shown. Between 0.02 and 0.2% of the CD8^+-positive T-cells were specific for keratin 18.

[1] = test system: autologous DC of CLL patient; assay: 51Cr-release assay, CTL of CLL patient against autologous peptide-pulsed DC; details: adipophilin-peptide-induced CTL of CLL patient; FIG. 6
Method: In the CTL-assays, tumor cells, peptide-pulsed cells of different cell lines and autologous DC were used as target cells. Peptide-pulsed cells were pulsed with 50 μg/ml peptide (SEQ ID No. 1 or SEQ ID No. 2) for 2 hours. All target cells were labeled with [^51Cr] sodium chromate in RP10 (RPMI 1640, supplemented with 10% heat inactivated calf serum and antibiotics) for 1 hour at 37° C. Subsequently, 10^4 cells/well were transferred to a 96-well round bottomed plate. Varying numbers of CTL were added to give a final volume of 200 μl and incubated for 4 hours at 37° C. At the end of the assays, supernatants (50 μl/well) were harvested and counted in a beta-plate counter. […] The spontaneous and maximal release were determined in the presence of either medium or 2% Triton X-100, respectively.
In a further experiment, CTL were generated from PBMNC of HLA-A*0201-positive patient with chronic lymphatic leukemia (CLL), which were specific for adipophilin-peptide with SEQ ID NO:2. The patient was in remission after treatment with fludarabine. Further, autologous CLL-cells and DC of this patient were used as ^51Cr-labeled targets in an assay, in which ^51Cr-release is mediated by the peptide-induced CTL.

51Cr-labeled A 498 = assay: Lysis-inhibition assay with cold peptide-pulsed T2 inhibitor cells, target A 498
Method: (§1) To further verify the antigen-specificity and the MHC-restriction of the in-vitro-induced CTL, inhibition assays with non-^51Cr-labeled (“cold”) inhibitor cell lines were performed.
(§2) In doing so, the ability of peptide-pulsed cell lines was analyzed to inhibit the lysis of tumor cells (competition assay). For this purpose, an excess of inhibitor (that is an excess of unlabeled pulsed cells) was used. The ratio of inhibitor (peptide-pulsed cells) to target (tumor cells) was 20:1. When inhibitor cell lines were lysed, no ^51Cr was released, since the inhibitor cell lines were unlabeled.
(§3) Cell line T2 (HLA-A*02; TAP-deficient; see under 2.5.a) was used as inhibitor. Previous to the assay, this cell line T2 was pulsed with the relevant peptides (SEQ ID NOS:1 or 2) or an irrelevant control peptide (Survivin (=Sv), SEQ ID NO:80), respectively.
(§4) In FIGS. 4a and 4b, lysis of the ^51Cr-labeled cell lines U 266 and A 498 was tested without inhibitor cell line (see the curve with black filled boxes); lysis with inhibitor cell line T2, pulsed with an irrelevant peptide (Survivin; SEQ ID NO:80; negative control, curves with the filled triangles); and lyses with the inhibitor cell line T2 pulsed with the c-Met-peptide with SEQ ID NO:1 (curves with the empty rhombus).
With these inhibition assays, the cells were incubated with 10 μg/ml antibody previous to seeding on the 96-well-plates for 30 min.

51Cr-labeled U 266 = assay: Lysis-inhibition assay with cold peptide-pulsed T2 inhibitor cells, target U 266; details: c-Met-peptide-induced CTL, inhibitor:target 20:1, FIGS. 4a and 4b
Method: as §1, §2, §3, §4

Sequence	healthy individuals with a significant population of specific CD8+-T-lymphocytes (CD8+-T-lymphocytes)	lysis of autologous DC pulsed with the peptide [1]	inhibition of CTL-induced lysis of tumor cell line by T2 cells pulsed with the peptide (51Cr-labeled A 498; adipophilin-peptide-induced CTL, FIG. 4c)	lysis of 51Cr-labeled tumor cells in presence of unlabeled T2 inhibitor cells pulsed with the peptide (51Cr-labeled A 498; c-Met-peptide-induced CTL, inhibitor:target 20:1, FIGS. 4a and 4b)	lysis of 51Cr-labeled tumor cells in presence of unlabeled T2 inhibitor cells pulsed with the peptide (51Cr-labeled U 266)
ALLNIKVKL (listed as Homo sapiens) [SEQ ID No. 3, HLA-A*02 ligand, keratin 18 365-373]	four out of 22				
ELTLGEFLKL (listed as Homo sapiens) [Survivin, irrelevant control peptide, reference compound]		not lysed	not able to inhibit	not able to inhibit	not able to inhibit
